# Reference: patent US20040039048A1, “Therapy with cannabinoid compounds for the treatment of brain tumors” (priority 2000, published 2004)
# Entries after “also recorded” stand apart in the source; their conditions may differ. Read-outs that look alike come from different tables or passages of the source.
# Legend:
# [1] = test system: C6 glioblastoma cells; assay: Viability of C6 glioblastoma culture cells (MTT method); assay type: cell-based; conditions: for IC50: after 5 days of exposure, n=4, read-out: concentration reducing viability of C6 glioblastoma by 50%; for prevention of cell death induced by THC, the two antagonists SR141716 and SR144528 jointly added: 1 μM SR141716 and 1 μM SR144528, 5 days
# Procedure: Experiments were conducted with the object of obtaining a pharmacological characterization of cannabinoid-induced death of C6 glioblastoma culture cells.
# C6 glioblastoma cells were cultivated at 37° C. and 5% CO2 in F-12 medium supplemented with calf fetal serum at 10%. 24 h before the start of the experiment the cells were transferred to an F-12 medium free of serum and supplemented with insulin (5 μg/ml), transferrine (10 μg/ml), sodium selenite (5 μg/ml) and delipidized and dialyzed BSA (10 mg/ml). The medium was renovated every 48 h and the cell viability was determined by the MTT method (Sanchez, C., Galve-Roperh, I., Canova, C., Brachet, P. & Guzman, M., op cit.).
# [2] = test system: C6 glioblastoma cells; assay: C6 glioblastoma cells inoculated subcutaneously in immunodeficient RAG-2-/- mice; tumor size; assay type: in vivo; conditions: 500 μg of THC or 50 μg of WIN-55,212-2 per day for 7 days, caliper, P<0.01 Student t test
# Procedure: In order to discern whether the antiproliferative action of cannabinoids was due to a direct effect on the tumoral cells or to an indirect effect mediated by an immune response, C6 glioblastoma cells were inoculated subcutaneously in mice with a deficiency of recombinase RAG-2 (RAG-2^-/-), which lack mature T and B lymphocytes (Shinkai et al. Cell 68, 855-867, 1992).
# Tumors were induced in RAG-2^-/- […] by subcutaneous inoculation of 5×10^6 C6 glioblastoma cells in 100 μl of PBS supplemented with 0.1% glucose. […] The tumor sizes were measured by a caliper and their volume calculated according to (4π/3)×(width/2)^2×(length/2). […] In FIG. 4b are shown examples of tumor bearing mice and tumors dissected after treatment with or without cannabinoids for 7 days.
# [3] = test system: C6 glioblastoma cells; assay: C6 glioblastoma cells inoculated in rat brain; survival and magnetic resonance; assay type: in vivo, Wistar rats
# Procedure: C6 glioblastoma cells were directly inoculated in the brain of Wistar rats and the tumors viewed by magnetic resonance. […] To evaluate the antitumoral potential of the cannabinoids, 12 days after inoculating the cells a group of animals was administered THC or WIN-55, 212-2 for 7 days through a cannula located at the site of inoculation.
# Male Wistar rats (250-300 g in body mass) were anaesthetized with 3% isofluorane in an oxygen mixture (0.8 l/min) and protoxide (0.4 l/min). 5×10^8 C6 glioblastoma cells were prepared in 100 μl of saline solution buffered with phosphate (PBS) and supplemented with 0.1% glucose, and stereotaxically injected in the frontal parietal lobule of the right hemisphere (4 mm to the right of bregma, 4.5 mm depth from the cranium) (Izquierdo, M et al., Gene Ther. 2, 66-69, 1995). The rats received dexamethasone (2 mg/l) and tetracycline (75 mg/kg of body weight) in water for 3 days before and 7 days after inoculation of the cells. A thorough monitoring of the tumors was performed by magnetic resonance with the methods described by other authors (Izquierdo, M et al., op cit; Cortés, M. L., de Felipe, P., Martin, V. Hughes, M. A. & Izquierdo, M. Gene Ther. 5, 1499-1507, 1998).
# The administration of cannabinoids to rats began 12 days after inoculation of the cells. At this time the average size of the tumors was 70 mm^3 (interval 25-100 mm^3) as estimated by magnetic resonance (Izquierdo, M et al., op cit; Cortés, de Felipe, Martin, Hughes & Izquierdo, M, op cit.). Cannabinoids were administered by a cannula placed at the place of inoculation of the tumor and attached to the cranium by dental cement; a small stainless steel screw anchored the cannula and the dental cement. The cannula was subcutaneously connected by a catheter to an osmotic mini-pump (Alzet 2001) which operated at a flow of 1 μl/h for 7 days. The osmotic pump was filled with 500-2500 μg of THC or 50-250 μg of WIN-55,212-2 in 200 μl of PBS supplemented with 5 mg/l of bovine serum albumin (BSA), delipidized and dialyzed.
# [4] = fraction of treated animals, 7 days through cannula from day 12
Compound,IC50 [1],IC50 ([1]; 120 h),"prevention of cell death induced by THC, the two antagonists SR141716 and SR144528 jointly added ([1]; 1 μM THC)",size of tumors versus control animals [2],also measured
"CCCCCCC(C)(C)c1ccc([C@@H]2C[C@H](O)CC[C@H]2CCCO)c(O)c1 [CP-55,940]",45 nM,,,,
CCCCCCC(C)(C)c1cc(O)c2c(c1)OC(C)(C)[C@@H]1CC=C(CO)C[C@@H]21 [HU-210],,10 nM,,,
Cc1c(C(=O)NN2CCCCC2)nn(-c2ccc(Cl)cc2Cl)c1-c1ccc(Cl)cc1 [SR141716],,,prevented,,"prevention of cell death induced by THC, antagonist added separately ([1]; 1 μM THC, 1 μM antagonist, 5 days): Neither"
"CCCCCc1cc(O)c2c(c1)OC(C)(C)[C@@H]1CCC(C)=C[C@@H]21 [THC, Δ^9-tetrahydrocannabinol]",,480 nM,,extraordinarily smaller; also recorded: much smaller,"induction of death of C6 glioblastoma cells ([1]; 1 μM THC, 5 days, n=6): capable of inducing the death"
"Cc1c(C(=O)c2cccc3ccccc23)c2cccc3c2n1[C@H](CN1CCOCC1)CO3 [WIN-55,212-2]",20 nM,,,much smaller,"size of tumors versus control animals ([2]; 212-2): extraordinarily smaller; survival time ([3]; days after inoculation, in the responding animals, cannabinoid for 7 days through cannula at site of inoculation from day 12, untreated died 12-18 days): 19 to 43 days; animals with increased survival time [3, 4]: 4/15; animals with tumor completely eradicated [3, 4]: 5/15"
SR144528,,,prevented,,
